Experimental findings from patent publication US9067884B2, “Pyrrole compounds that modulate HSP90 activity” (Synta Pharmaceuticals Corp., priority 2008, dated 2015) are described below.

Molecules are shown by their SMILES. Where only a bound is given, the exact number is not on record here.

Broadly, the IC50 is the concentration needed to halve the response being measured.

For experiment [1], the system named is Hsp90. As to the kind of experiment: IC50 range of compounds of the invention for  inhibition of Hsp90 (Method 2: MV-4-11 cells, Cell Counting Kit-8). The class given is cell-based, human. Particulars: text: IC50 range for Her2 degradation, 72 hours, cell survival by Cell Counting Kit-8. Here is the method:
MV-4-11 cells (20,000 cells/well) were cultured in 96-well plates and maintained at 37° C. for several hours. The cells were treated with a compound of the invention or 17AAG (a positive control) at various concentrations and incubated at 37° C. for 72 hours. Cell survival was measured with Cell Counting Kit-8 (Dojindo Laboratories, Cat. # CK04).
On the technique in general: Tetrazolium assays rely on reduction of a dye to a coloured formazan, in cell work by metabolically active cells.

Experiment [2] relates to Her2. As to the kind of experiment: Degradation of Her2 in BT-474 cells (Method 1, Western blot). Particulars: 0.5 μM, overnight. The class given is cell-based, Human. The protocol: Human high-Her2 breast carcinoma BT474 (HTB-20), SK-BR-3 (HTB-30) and MCF-7 breast carcinoma (HTB-22) from American Type Culture Collection, VA, USA were grown in Dulbecco's modified Eagle's medium with 4 mM L-glutamine and antibiotics (100 IU/ml penicillin and 100 μg/ml streptomycine; GibcoBRL). To obtain exponential cell growth, cells were trypsinized, counted and seeded at a cell density of 0.5×10^6 cells/ml regularly, every 3 days. All experiments were performed on day 1 after cell passage.
BT-474 cells are treated with 0.5 μM, 2 μM, or 5 μM of 17AAG (a positive control) or 0.5 μM, 2 μM, or 5 μM of a compound of the invention overnight in DMEM medium. After treatment, each cytoplasmic sample, is prepared from 1×10^6 cells by incubation of cell lysis buffer (#9803, Cell Signaling Technology) on ice for 10 minutes. The resulting supernatant used as the cytosol fractions is dissolved with sample buffer for SDS-PAGE and run on a SDS-PAGE gel, blotted onto a nitrocellulose membrane by using semi-dry transfer. Non-specific binding to nitrocellulose is blocked with 5% skim milk in TBS with 0.5% Tween at room temperature for 1 hour, then probed with anti-Her2/ErB2 mAb (rabbit IgG, #2242, Cell Signaling) and anti-Tubulin (T9026, Sigma) as housekeeping control protein. […]
In general terms: In western blotting, separated proteins are transferred to a membrane and probed.

Take `CCNC(=O)c1ccc(-c2cc(C(C)C)c(O)cc2O)n1-c1ccc(N(C)C)cc1` [Compound 3, 5-(2,4-dihydroxy-5-isopropylphenyl)-1-(4-(dimethylamino)phenyl)-N-ethyl-1H-pyrrole-2-carboxamide]: the IC50 in experiment [1] was > 1000 nM. `C=CCNC1=C2C[C@@H](C)C[C@H](OC)[C@H](O)[C@@H](C)/C=C(\C)[C@H](OC(N)=O)[C@@H](OC)/C=C\C=C(/C)C(=O)NC(=CC1=O)C2=O` [Compound 17AAG, 17-allylamino-17-demethoxygeldanamycin]: the “degradation of Her2” value in experiment [2] is given as “partial degradation of Her2”.
